Measurements as given in PMC5296257 (Bioorganic & medicinal chemistry letters, 2017).

What was measured:
[1] = Mammalian cytotoxicity on non-immortalized IMR90 cells; type: cell-based; details: human
[2] = tested on: T. brucei bloodstream form (BSF); assay: T. brucei bloodstream form parasite viability; type: cell-based, Trypanosoma brucei; details: SI = IMR90 EC50/parasite EC50
[3] = tested on: L. amazonensis promastigote form parasites; assay: L. amazonensis promastigote viability; type: cell-based; details: SI = IMR90 EC50/parasite EC50
[4] = tested on: C/EBP-homologous protein (CHOP); details: cited from earlier work
[5] = tested on: T. brucei BSF 90-13 parasites; assay: Annexin V-FITC labeling; type: cell-based; details: BSF trypanosomes, 6 h exposure at compound's EC50 value; control line 463

SMILES: O=C(Nc1ccc(S(=O)(=O)N2CCC3(CCCCC3)CC2)cc1)c1ccc([N+](=O)[O-])s1 [Compound 24]
- EC50 [1]: > 25 µM
- T. brucei selectivity index, SI [2]: > 1250
- L. amazonensis selectivity index, SI [3]: > 250

SMILES: O=C(Nc1ccc(S(=O)(=O)N2CCOCC2)cc1)c1ccc([N+](=O)[O-])s1 [Compound 21]
- EC50 [1]: > 25 µM
- T. brucei selectivity index, SI [2]: > 417
- L. amazonensis selectivity index, SI [3]: > 19

SMILES: Cc1ccc(C(=O)Nc2ccc(S(=O)(=O)N3CCOCC3)cc2)o1 [Compound 17]
- EC50 [1]: > 25 µM

SMILES: O=C(Nc1ccc(S(=O)(=O)N2CCC(O)CC2)cc1)c1ccc([N+](=O)[O-])o1 [Compound 7]
- EC50 [1]: > 25 µM
- T. brucei selectivity index, SI [2]: > 81
- L. amazonensis selectivity index, SI [3]: > 6

SMILES: O=C(Nc1ccc(S(=O)(=O)N2CCC(F)CC2)cc1)c1ccc([N+](=O)[O-])o1 [Compound 9]
- EC50 [1]: > 25 µM
- T. brucei selectivity index, SI [2]: > 60
- L. amazonensis selectivity index, SI [3]: > 3

SMILES: CC1CCN(S(=O)(=O)c2ccc(NC(=O)c3ccc([N+](=O)[O-])o3)cc2)CC1 [Compound 3]
- EC50 [1]: > 25 µM
- T. brucei selectivity index, SI [2]: > 208
- L. amazonensis selectivity index, SI [3]: > 3

SMILES: O=C(Nc1ccc(S(=O)(=O)N2CCCCC2)cc1)c1ccc([N+](=O)[O-])o1 [Compound 2]
- EC50 [1]: > 25 µM
- T. brucei selectivity index, SI [2]: >114
- L. amazonensis selectivity index, SI [3]: > 2

SMILES: O=C(Nc1ccc(S(=O)(=O)N2CCOCC2)cc1)c1ccco1 [Compound 14]
- EC50 [1]: > 25 µM

SMILES: CC1(C)CCN(S(=O)(=O)c2ccc(NC(=O)c3ccc(C(F)(F)F)o3)cc2)CC1 [Compound 20]
- EC50 [1]: > 25 µM
- T. brucei selectivity index, SI [2]: > 3
- L. amazonensis selectivity index, SI [3]: > 2
- mammalian CHOP activity [4]: no mammalian CHOP activity

SMILES: O=C(Nc1ccc(S(=O)(=O)C2CCCCC2)cc1)c1ccc([N+](=O)[O-])o1 [Compound 11]
- EC50 [1]: > 25 µM
- T. brucei selectivity index, SI [2]: > 51
- L. amazonensis selectivity index, SI [3]: > 16

SMILES: O=C(Nc1ccc(S(=O)(=O)N2CCC3(CCCCC3)CC2)cc1)c1ccc([N+](=O)[O-])o1 [Compound 6]
- EC50 [1]: > 25 µM
- T. brucei selectivity index, SI [2]: > 833
- L. amazonensis selectivity index, SI [3]: > 17

SMILES: N=C1CCN(S(=O)(=O)c2ccc(NC(=O)c3ccc([N+](=O)[O-])o3)cc2)CC1 [Compound 10]
- EC50 [1]: > 25 µM
- T. brucei selectivity index, SI [2]: > 34
- L. amazonensis selectivity index, SI [3]: > 2

SMILES: O=C(Nc1ccc(S(=O)(=O)N2CCOCC2)cc1)c1ccccc1 [Compound 16]
- EC50 [1]: > 25 µM

SMILES: CC1(C)CCN(S(=O)(=O)c2cccc(NC(=O)c3ccco3)c2)CC1 [Compound 27]
- EC50 [1]: > 25 µM
- T. brucei selectivity index, SI [2]: > 5
- L. amazonensis selectivity index, SI [3]: > 21

SMILES: CC1(C)CCN(S(=O)(=O)c2ccc(NC(=O)c3cccc([N+](=O)[O-])c3)cc2)CC1 [Compound 19]
- EC50 [1]: > 25 µM
- T. brucei selectivity index, SI [2]: > 4
- L. amazonensis selectivity index, SI [3]: > 2
- mammalian CHOP activity [4]: no mammalian CHOP activity

SMILES: CC(C)(C)C1CCN(S(=O)(=O)c2ccc(NC(=O)c3ccc([N+](=O)[O-])s3)cc2)CC1 [Compound 23]
- EC50 [1]: > 25 µM
- T. brucei selectivity index, SI [2]: > 833
- L. amazonensis selectivity index, SI [3]: > 250

SMILES: O=C(Nc1ccc(S(=O)(=O)N2CCC(Cl)CC2)cc1)c1ccc([N+](=O)[O-])o1 [Compound 8]
- EC50 [1]: > 25 µM
- T. brucei selectivity index, SI [2]: > 313
- L. amazonensis selectivity index, SI [3]: > 3

SMILES: CC1(C)CCN(S(=O)(=O)c2cccc(NC(=O)c3cccc([N+](=O)[O-])c3)c2)CC1 [Compound 28]
- EC50 [1]: > 25 µM
- T. brucei selectivity index, SI [2]: > 2
- L. amazonensis selectivity index, SI [3]: > 8

SMILES: O=C(Nc1ccc(S(=O)(=O)N2CCOCC2)cc1)c1ccc([N+](=O)[O-])cc1 [Compound 18]
- EC50 [1]: > 25 µM

SMILES: CC1(C)CCN(S(=O)(=O)c2cccc(NC(=O)c3ccc([N+](=O)[O-])o3)c2)CC1 [Compound 26]
- EC50 [1]: > 25 µM
- T. brucei selectivity index, SI [2]: > 78
- L. amazonensis selectivity index, SI [3]: > 250

SMILES: O=C(Nc1ccc(S(=O)(=O)N2CCOCC2)cc1)c1ccc([N+](=O)[O-])o1 [Compound 1]
- EC50 [1]: > 25 µM
- T. brucei selectivity index, SI [2]: > 54
- L. amazonensis selectivity index, SI [3]: > 8

SMILES: CC1(C)CCN(S(=O)(=O)c2ccc(NC(=O)c3ccc([N+](=O)[O-])s3)cc2)CC1 [Compound 22]
- EC50 [1]: > 25 µM
- T. brucei selectivity index, SI [2]: > 2500
- L. amazonensis selectivity index, SI [3]: > 250

SMILES: O=C(Nc1ccc(S(=O)(=O)c2ccccc2)cc1)c1ccc([N+](=O)[O-])o1 [Compound 13]
- EC50 [1]: > 25 µM
- T. brucei selectivity index, SI [2]: > 227
- L. amazonensis selectivity index, SI [3]: > 6

SMILES: CC(C)(C)C1CCN(S(=O)(=O)c2ccc(NC(=O)c3ccc([N+](=O)[O-])o3)cc2)CC1 [Compound 5]
- EC50 [1]: > 25 µM
- T. brucei selectivity index, SI [2]: > 833
- L. amazonensis selectivity index, SI [3]: > 18
- Annexin-V labeling, relative fluorescence median signal [5]: 1225

SMILES: CC1(C)CCN(S(=O)(=O)c2ccc(NC(=O)c3ccc([N+](=O)[O-])o3)cc2)CC1 [Compound 4]
- EC50 [1]: > 25 µM
- T. brucei selectivity index, SI [2]: > 278
- L. amazonensis selectivity index, SI [3]: > 89

SMILES: O=C(Nc1ccc(S(=O)(=O)N2CCOCC2)cc1)c1cccs1 [Compound 15]
- EC50 [1]: > 25 µM

SMILES: O=C(Nc1cccc(S(=O)(=O)N2CCOCC2)c1)c1ccc([N+](=O)[O-])o1 [Compound 29]
- EC50 [1]: > 25 µM
- T. brucei selectivity index, SI [2]: > 17
- L. amazonensis selectivity index, SI [3]: > 28

SMILES: O=C(Nc1ccc(S(=O)(=O)C2=CCOC=C2)cc1)c1ccc([N+](=O)[O-])o1 [Compound 12]
- EC50 [1]: > 25 µM
- T. brucei selectivity index, SI [2]: > 47
- L. amazonensis selectivity index, SI [3]: > 83

SMILES: CC1(C)CCN(S(=O)(=O)c2cccc(NC(=O)c3ccc([N+](=O)[O-])s3)c2)CC1 [Compound 25]
- EC50 [1]: > 25 µM
- T. brucei selectivity index, SI [2]: > 556
- L. amazonensis selectivity index, SI [3]: > 19
